# PubChem BioAssay (NCI)
# “And” between values parts separate entries of the source, which are not always exact repeats. Identical values can stand only once.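 The compound was tested at five concentrations on cells cultured in 96-well plates, with a 48-hour exposure period. GI50 is the concentration that inhibits growth by half. TGI: concentration producing complete growth inhibition.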 Where a SMILES comes first, the peptide text is derived from it. The star is where a group is joined. Palmitoyl = CCCCCCCCCCCCCCCC(=O)*
# What was measured:
# Assay in all cases: inhibition of tumour cell growth, NCI panel, 48 h
# CCRF-CEM leukemia = system: CCRF-CEM leukemia
# MDA-MB-231 breast = system: MDA-MB-231 breast
# OVCAR-3 ovarian = system: OVCAR-3 ovarian
# OVCAR-8 ovarian = system: OVCAR-8 ovarian
# RXF 393 renal = system: RXF 393 renal
# SF-268 CNS = system: SF-268 CNS
# SK-MEL-28 melanoma = system: SK-MEL-28 melanoma
# UACC-62 melanoma = system: UACC-62 melanoma
# NCI-H460 lung = system: NCI-H460 lung
# MDA-N = system: MDA-N
Structure (SMILES),TGI (CCRF-CEM leukemia) [µM],TGI (MDA-MB-231 breast) [µM],TGI (OVCAR-3 ovarian) [µM],TGI (OVCAR-8 ovarian) [µM],TGI (RXF 393 renal),TGI (SF-268 CNS) [µM],TGI (SK-MEL-28 melanoma) [µM],TGI (UACC-62 melanoma) [µM],GI50 (CCRF-CEM leukemia) [µM],GI50 (MDA-MB-231 breast) [µM],GI50 (NCI-H460 lung) [µM],TGI (NCI-H460 lung) [µM],GI50 (OVCAR-3 ovarian) [µM],GI50 (OVCAR-8 ovarian) [µM],GI50 (RXF 393 renal) [µM],GI50 (SF-268 CNS) [µM],GI50 (SK-MEL-28 melanoma) [µM],TGI (MDA-N) [µM]
Cc1ccsc1/C=N/Nc1cnccn1,> 100,> 100,> 100,> 100,> 100 µM,> 100,> 100,> 100,–,–,–,–,–,–,–,–,–,–
CCCCCCCCCCCCCCCC(=O)N1CCCC1C(=O)NCC(=O)NC(Cc1ccccc1)C(=O)N1CCCC1C(=O)NC(CO)C(=O)NC(Cc1ccc(O)cc1)C(=O)NC(CCCCN)C(=O)NC(CC(C)C)C(=O)NC(CCCN=C(N)N)C(=O)N1CCCC1C(=O)NCC(N)=O (stereo unspecified) (Palmitoyl-PGFPSYKLRPG-NH2; configuration not given here),33.8,32.8,> 100,55.4,53 µM,30.6,50.3,–,17,17.5,19.4,41.2,33.3,22.1,23.2,12.4,13.9,–
Cc1cc(C)nc(NC(=S)Nc2ccc([N+](=O)[O-])cc2)c1,> 100,> 100,–,> 100,> 100 µM,> 100,> 100,> 100,–,–,–,> 100,–,–,–,–,–,–
CN1Cc2c(nc(-c3ccccc3)c[n+]2[O-])N(C)C1,> 100,–,> 100,> 100,–,> 100,> 100,> 100,–,–,–,> 100,–,–,–,–,–,–
O=C1NC(O)CCN1C1OC(CO)C(O)C1O (stereo unspecified),> 250,–,> 250,> 250,> 250 µM,> 250,> 250,> 250,–,–,–,> 250,–,–,–,–,–,–
CC(C(=O)COCc1ccccc1)P1(=O)OC(C)(C)CN1C(C)(C)C (stereo unspecified),> 100,–,> 100,> 100,> 100 µM,> 100,–,> 100,–,–,–,> 100,–,–,–,–,–,> 100
C=CC1(C)CC(=O)C2(O)C(C)(O1)C(OC(C)=O)C(O)C1C(C)(C)CCC(O)C12C (stereo unspecified),> 150,–,> 150,> 150,90.6 µM and > 119 µM,> 150,> 150,101,> 65.8,–,–,> 150,–,–,4.98,–,–,–
COc1ccc(CC(N)=O)cc1OC,> 1250,–,> 1250,> 125,> 1250 µM,> 1250,> 1250,> 1250,–,–,–,> 1250,–,–,–,–,–,–
C[C@@H]1CC[C@H]2[C@H]1[C@H]1[C@@H](CC[C@]2(C)N=C=S)C1(C)C,30.9,52.7,42.9,> 100,30.5 µM,–,49.7,42.6,–,–,–,47.3,–,–,–,–,–,23.4
CN1CC[C@]2(c3cccc(O)c3)CC(=O)/C(=C/c3ccccc3)[C@@H]1C2,> 24.5,7.29,4.43,10.5,4.18 µM,10.4,13.4,–,–,–,–,7.23,–,–,–,–,–,3.94
O=C1/C(=C/c2ccc(Cl)cc2)CCCc2ccccc21,32.5,39.7,39.4,32.7,–,30.9,30.7,27.5,–,–,–,32.2,–,–,–,–,–,33.3
COc1cc(C2c3cc4c(cc3[C@@H](Nc3ccccc3)C3COC(=O)[C@H]23)OCO4)cc(OC)c1O (stereo partly specified),0.476,–,7.34,> 19.7,6.8 µM,13.2,23.1,2.9,–,–,–,2.86,–,–,–,–,–,–
CN1CCN(Cc2cc3c(nn2)-c2ccccc2C3=O)CC1,> 100,–,–,> 100,> 100 µM,> 100,–,> 100,–,–,–,> 100,–,–,–,–,–,52.3
CC(C)C1=CC23CCC4C(C)(C(=O)O)CCCC4(C)C2CC1C1C(=O)N(CCCCCCN2C(=O)C4C5CC6C7(C)CCCC(C)(C(=O)O)C7CCC6(C=C5C(C)C)C4C2=O)C(=O)C13 (stereo unspecified),37.7,36.8,26.8,24.9,28.3 µM,26.8,23.6,> 100,–,–,–,–,–,–,–,–,–,28.4
CCOC(=O)/C=C1/C(CCCOCc2ccccc2)C2CCCC23CC2(CCN13)OCCO2 (stereo unspecified),64.4,–,49.4,> 100,37.5 µM,> 100,51.3,50,–,–,–,47.1,–,–,–,–,–,–
c1ccc(C(C(=Nc2ccc(Cc3ccc(N=C(C(c4ccccc4)c4ccccc4)N4CC4)cc3)cc2)N2CC2)c2ccccc2)cc1,49.8,29.2,24.6,22.5,16.1 µM,21.8,21.4,21.7,–,–,–,13.4,–,–,–,–,–,–
O=C(NN1C(=O)CS(=O)(=O)C1c1ccc(C(F)(F)F)cc1)c1ccncc1 (stereo unspecified),> 100,–,–,–,> 100 µM,> 100,> 100,–,–,–,–,> 100,–,–,–,–,–,–
